Measurements published in publication PMC8269107, “Lipidation of Temporin-1CEb Derivatives as a Tool for Activity Improvement, Pros and Cons of the Approach” (International Journal of Molecular Sciences, 2021).
Values after ≈ are worked out from the molar mass of the structure shown. Where a SMILES comes first, the peptide text is derived from it. [ ]: non-standard residue; d: D form. The star is where a group is joined. Palmitoyl = CCCCCCCCCCCCCCCC(=O)*; Lauroyl = CCCCCCCCCCCC(=O)*; Pentanoyl = CCCCC(=O)*; AEEA = NCCOCCOCC(=O)O; Ahx = NCCCCCC(=O)O; βAla = NCCC(=O)O

Experiments:
C.parapsilosis CCM 8260 = test: MIC, broth microdilution; format: cell-based, Candida parapsilosis; settings: C.parapsilosis CCM 8260, 24 h
Excerpt: (§1) Escherichia coli (PCM 2057 = ATCC 25922), Staphylococcus aureus (PCM 2054 = ATCC 25923), Staphylococcus epidermidis (PCM 2118 = ATCC 14990), Bacillus subtilis (PCM 2224 = ATCC 9799), Bacillus cereus (PCM 482 = ATCC 10702) and Pseudomonas aeruginosa (PCM 499 = ATCC 10145) were obtained from the Polish Collection of Microorganisms. Fungi strains Candida albicans (CCM 8186 = CNTC 49/64), Candida glabrata (CCM 8270 = ATCC 90030), Candida parapsilosis (CCM 8260 = ATCC 22019) and Candida krusei (CCM 8271 = ATCC 6258) were acquired from the Czech Collection of Microorganisms. S. aureus USA300 (wild type strain), the reference strain of Klebsiella pneumoniae (ATCC 13883) and clinical isolates of Pseudomonas aeruginosa (PA1, PA2) collected from nonrelated patients admitted to the Stefan Zeromski Specialist Municipal Hospital in Krakow (Poland) were kindly provided by the research group of the Department of Microbiology, Faculty of Biochemistry, Biophysics and Biotechnology, Jagiellonian University, Krakow, Poland.
(§2) Luria-Bertani broth (LB) and Sabouraud Dextrose broth (SB) (Biocorp, Poland) were used for cultivation of bacteria and fungi strains, respectively. The antimicrobial activity of the peptides were analyzed through determination of MIC (minimal inhibitory concentration) parameters according to Clinical and Laboratory Standards (CLSI) guidelines developed for aerobic bacteria and yeasts, respectively. Mueller-Hinton broth (MHB) was used as the working medium for all bacterial strains, while in the case of fungi, RPMI-1640 (with L-glutamine, without sodium bicarbonate) growth medium buffered with MOPS (morpholinepropanesulfonic acid) and supplemented with 2% glucose was used. Inoculum was prepared from freshly grown cultures of microorganisms at their exponential phase of growth. […] Plates were then incubated for 24 h at 37 °C in the case of bacteria and at 35 °C in the case of fungi. After that time, absorbance was read at 590 nm with a Perkin Elmer plate reader. Cultures without peptide were treated as positive control, while uninoculated media were defined as negative control. All measurements were run at least in triplicate.

C.glabrata CCM 8270 = test: MIC, broth microdilution; format: cell-based, Candida glabrata; settings: for MIC100: C.glabrata CCM 8270, 24 h
Excerpt: as §1, §2

E. coli PCM 2057 = test: MIC, broth microdilution; format: cell-based, Escherichia coli; settings: E. coli PCM 2057, 24 h
Excerpt: as §1, §2

P. aeruginosa PCM 499 = test: MIC, broth microdilution; format: cell-based, Pseudomonas aeruginosa; settings: P. aeruginosa PCM 499, 24 h
Excerpt: as §1, §2

keratinocytes (HaCaT) = test: Cytotoxicity, MTT assay; format: cell-based, human; settings: MTT, 24 h; for IC50: Keratinocytes (HaCaT); for effect on cell viability (in words): keratinocytes, 1 to 50 µg/mL
Method: (§3) Human dermal fibroblasts were obtained as previously reported from biopsies of healthy human skin of three donors undergoing a surgery. All procedures were approved by the Ethics Committee of Medicinal University of Gdansk (NKEBN/483/2011 and NKBBN/745/2019-2020). Immortalized human HaCaT keratinocytes (DKFZ Heidelberg, Germany) were obtained commercially.
(§4) Both types of cell lines were grown in Dulbecco′s Modified Eagle′s Medium (DMEM) (Sigma-Aldrich, Germany), containing […] of glucose, […] of L- glutamine, sodium pyruvate and sodium bicarbonate. Additionally, the medium was supplemented with 10% FCS (fetal calf serum, Sigma-Aldrich, Germany), 100 U/mL of penicillin and 100 μg/mL of streptomycin (Sigma-Aldrich, Germany). The cells were grown in standard culture dishes (BD, USA) in a humidified atmosphere with 5% CO2 at […], and the medium was changed every 2 days.
(§5) The fibroblasts and keratinocytes were seeded at density of 5500 cells per well into 96-well plates suspended in a medium supplemented with 10% FCS. After 24 h from seeding, the media were exchanged with serum- and antibiotic-free DMEM and tested peptides, dissolved in sterile water, which were added, yielding a final concentration ranging from 1 to 50 μg/mL. The cells were then incubated for the next 24 h. At the end of the experiment, the cells were treated with 20 μL of MTT (5 mg/mL in PBS). After 3 h of incubation in the presence of MTT dye, the DMEM medium was discarded and replaced with 6 mM HCl in isopropanol. When the purple crystals of formazan were fully solubilized, absorbance at 570 nm was read.

primary fibroblasts = test: Cytotoxicity, MTT assay; format: cell-based, human; settings: MTT, 24 h; for effect on cell viability (in words): fibroblasts, 1 to 50 µg/mL; for IC50: primary Fibroblasts
Method: as §3, §4, §5

[1] = test system: C. albicans (CCM 8186) biofilm; test: Biofilm eradication assay, pre-formed 24 h old biofilm (MTT); format: cell-based, Candida albicans; settings: C. albicans pre-formed 24 h old biofilm, 24 h treatment
Method: In the case of yeasts, the overnight culture of C. albicans in Sabouraud dextrose broth (SB) was used for inoculum preparation. Similar to above, 5 mL of 24 h culture was centrifuged, washed with PBS and then suspended in sterile RPMI-1640 medium (with L-glutamine, without sodium bicarbonate) supplemented with 2% glucose (RPMI-1640/+G) yielding the amount of about 1 × 10^7 cells per ml. Subsequently, 200 µL of yeast suspension was transferred into each well of a microtiter plate, and it was incubated stationary for the next 24 h at 35 °C.
After that, each well of the plates containing bacterial or fungi biofilm was washed three times with PBS in order to remove all non-adherent cells. Then, peptide solutions of 200 µL ranging from 50 to 0,39 µg/mL prepared in TSB +/G in the case of experiments on S. aureus biofilm, and (RPMI-1640/+G) in the case of C. alibcans, were prepared and transferred into the microtiter plates. After the addition of the peptides, the experiments were continued for the next 24 h.
The reduction in biofilm viability was analyzed by means of MTT assay. Briefly, 20 μL of MTT solution (5 mg/mL in PBS) was added to prewashed wells with exchanged medium (180 μL of fresh medium) wells containing bacterial/yeast biofilms. Plates were then incubated in the dark for the next 3 h at 37 °C. After that time, the medium was replaced with 6 mM HCl in isopropanol and, when the reduced MTT was fully dissolved, the plates were read at 570 nm. Activity against fully developed 24 h old biofilm was described as biofilm eradication concentration (BEC50 expressed in µg/mL), which corresponded to the concentration of the compound able to reduce 50% of biofilm viability compared with the growth control.

| Compound | MIC100 (C.parapsilosis CCM 8260) | MIC100 (C.glabrata CCM 8270) | MIC100 (E. coli PCM 2057) | MIC100 (P. aeruginosa PCM 499) | IC50 (keratinocytes (HaCaT)) | effect on cell viability (in words) (keratinocytes (HaCaT)) | effect on cell viability (in words) (primary fibroblasts) | IC50 (primary fibroblasts) | BEC50 [1] | fold improved activity in comparison to the parent DK5 (C.glabrata CCM 8270; C. glabrata, MIC) |
| --- | --- | --- | --- | --- | --- | --- | --- | --- | --- | --- |
| CC[C@H](C)[C@H](NC(=O)COCCOCCNC(=O)[C@H](Cc1c[nH]cn1)NC(=O)CCNC(=O)CCCCCN)C(=O)N[C@@H](CCCCN)C(=O)N[C@@H](CCCCN)C(=O)N[C@H](C(=O)N[C@@H](CC(C)C)C(=O)N[C@@H](CO)C(=O)N[C@@H](CCCCN)C(=O)N[C@H](C(=O)N[C@@H](CCCCN)C(=O)N[C@@H](CCCCN)C(=O)N[C@@H](CC(C)C)C(=O)N[C@@H](CC(C)C)C(N)=O)[C@@H](C)CC)[C@@H](C)CC [AHX-CAR-PEG-DK5] (H-[Ahx][βAla]H[AEEA]IKKILSKIKKLL-NH2) | 50 µg/mL (≈ 26.4 µM) | >50 µg/mL | >50 µg/mL | >50 µg/mL | >50 µg/mL | neutral or even pro-proliferative | neutral or even pro-proliferative | >50 µg/mL | 20 µg/mL |  |
| CC[C@H](C)[C@H](NC(=O)CCCCCN)C(=O)N[C@@H](CCCCN)C(=O)N[C@@H](CCCCN)C(=O)N[C@H](C(=O)N[C@@H](CC(C)C)C(=O)N[C@@H](CO)C(=O)N[C@@H](CCCCN)C(=O)N[C@H](C(=O)N[C@@H](CCCCN)C(=O)N[C@@H](CCCCN)C(=O)N[C@@H](CC(C)C)C(=O)N[C@@H](CC(C)C)C(N)=O)[C@@H](C)CC)[C@@H](C)CC [AHX-DK5] (H-[Ahx]IKKILSKIKKLL-NH2) | 12.5 µg/mL (≈ 8.13 µM) | 12.5 µg/mL (≈ 8.13 µM) | 12.5 µg/mL (≈ 8.13 µM) | 25 µg/mL (≈ 16.3 µM) | >50 µg/mL | moderately toxic | moderately toxic | 50 µg/mL (≈ 32.5 µM) | 25 µg/mL |  |
| CCCCC(=O)NCCC(=O)N[C@@H](Cc1c[nH]cn1)C(=O)NCCOCCOCC(=O)N[C@H](C(=O)N[C@@H](CCCCN)C(=O)N[C@@H](CCCCN)C(=O)N[C@H](C(=O)N[C@@H](CC(C)C)C(=O)N[C@@H](CO)C(=O)N[C@@H](CCCCN)C(=O)N[C@H](C(=O)N[C@@H](CCCCN)C(=O)N[C@@H](CCCCN)C(=O)N[C@@H](CC(C)C)C(=O)N[C@@H](CC(C)C)C(N)=O)[C@@H](C)CC)[C@@H](C)CC)[C@@H](C)CC [C5-CAR-PEG-DK5] ({Pentanoyl-βAla}-H[AEEA]IKKILSKIKKLL-NH2) | 50 µg/mL (≈ 26.9 µM) | >50 µg/mL | >50 µg/mL | >50 µg/mL | >50 µg/mL | neutral or even pro-proliferative | neutral or even pro-proliferative | >50 µg/mL | 20 µg/mL |  |
| CCCCCCCCCCCC(=O)N[C@H](C(=O)N[C@@H](CCCCN)C(=O)N[C@@H](CCCCN)C(=O)N[C@H](C(=O)N[C@@H](CC(C)C)C(=O)N[C@@H](CO)C(=O)N[C@@H](CCCCN)C(=O)N[C@H](C(=O)N[C@@H](CCCCN)C(=O)N[C@@H](CCCCN)C(=O)N[C@@H](CC(C)C)C(=O)N[C@@H](CC(C)C)C(N)=O)[C@@H](C)CC)[C@@H](C)CC)[C@@H](C)CC [Compound C12-DK5] (Lauroyl-IKKILSKIKKLL-NH2) | 3.13 µg/mL (≈ 1.95 µM) | 3.13 µg/mL (≈ 1.95 µM) | 12.5 µg/mL (≈ 7.78 µM) | 12.5 µg/mL (≈ 7.78 µM) | 1 µg/mL (≈ 0.623 µM) |  |  | 7 µg/mL (≈ 4.36 µM) |  | ~20 fold |
| CCCCCCCCCCCCCCCC(=O)N[C@H](C(=O)N[C@@H](CCCCN)C(=O)N[C@@H](CCCCN)C(=O)N[C@H](C(=O)N[C@@H](CC(C)C)C(=O)N[C@@H](CO)C(=O)N[C@@H](CCCCN)C(=O)N[C@H](C(=O)N[C@@H](CCCCN)C(=O)N[C@@H](CCCCN)C(=O)N[C@@H](CC(C)C)C(=O)N[C@@H](CC(C)C)C(N)=O)[C@@H](C)CC)[C@@H](C)CC)[C@@H](C)CC [Compound C16-DK5] (Palmitoyl-IKKILSKIKKLL-NH2) |  | >50 µg/mL | >50 µg/mL | >50 µg/mL | 5 µg/mL (≈ 3.01 µM) |  |  | 7 µg/mL (≈ 4.21 µM) | 12.5 µg/mL |  |
